In one test the test system is mRCC. Format: in vivo, human. An excerpt:
Some patients received a prior TKI therapy with sunitinib or sorafenib, others a prior cytokine therapy with interferon or interleukin.
Both patient groups were followed up for progression-free survival (PFS) and overall survival (OS).

For another test, the system named is HLA class-II. Nature of the test: Binding to HLA class-II. The arrangement: species or system human.
In test [1] the test system is HLA-A*02 positive tumor cells endogenously expressing Cyclin D1. To be noted: allo-restricted T cells of HLA-A2-negative donors; cited from earlier work.
A further test concerns CTL. The settings on record: healthy donors, colon cancer and mantle cell lymphoma patients; autologous CD40-activated B cells as APCs; cited from earlier work.

Entries after “also recorded” stand apart in the source; their conditions may differ.

We go through 3 compounds from US9056069B2, “Cancer therapy based on tumor associated antigens derived from cyclin D1” (IMMATICS BIOTECHNOLOGIES GMBH, priority 2010, dated 2015).

Take `O=P1(N(CCCl)CCCl)NCCCO1` (stereo not shown) [cyclophosphamide]: the “effect of prior low-dose cyclophosphamide treatment on outcome of vaccine treatment” value in the test with mRCC (cyclophosphamide 300 mg/m2 single infusion before vaccination) is given as “further significantly improved the outcome”.

With “NPPSMVAAGSVVAAV (listed as Homo sapiens) [CCN-003, cyclin D1-derived peptide, aa 198-212]”, in the test on HLA class-II, the HLA restriction entry is given as “appears DRB1*0401 restricted” and the “binding to HLA class-II” value is “binds to HLA class-II”.

Consider “LLGATCMFV (listed as Homo sapiens) [CCN-001, cyclin D1-derived peptide, aa 101-109]”, for which, in the test on mRCC (all vaccinated patients), the “survival of patients responding against CCN-001 versus non-CCN-001-responding patients” value is “significant longer survival; also recorded: survive significantly longer”. Besides, the “favorable effect of T cell response against CCN-001 on survival” value with mRCC (patient group pretreated with cyclophosphamide) is “even more evident”. For the same compound, the “lysis of tumor cells by T cell clones recognizing the peptide” value in test [1] is “could lyse HLA-A*02 positive tumor cells endogenously expressing Cyclin D1”. In addition, in the test on CTL, the “generation of epitope-specific CTL” value is listed as “could be generated from HLA-A2+ donors”.
